Active and inactive are the calls of the source. The rule behind the calls is not given here.
Columns and labels:
Assay type in all cases: protein assay
[1] = target: T1, Alpha-1,2-mannosidase (BT_3990) (Bacteroides thetaiotaomicron) (UniProt Q8A0N1); test: Activity of Bacteroides thetaiotaomicron GH92 alpha-mannosidase 3990 assessed as recovery of enzyme activity at 1 mM in presence of 7 mM Ca(2+) ions and in presence of 5 mM EDTA in 100 mM pH 7 MOPS buffer relative to enzyme activity in presence of calcium
T1 sequence (whole entry): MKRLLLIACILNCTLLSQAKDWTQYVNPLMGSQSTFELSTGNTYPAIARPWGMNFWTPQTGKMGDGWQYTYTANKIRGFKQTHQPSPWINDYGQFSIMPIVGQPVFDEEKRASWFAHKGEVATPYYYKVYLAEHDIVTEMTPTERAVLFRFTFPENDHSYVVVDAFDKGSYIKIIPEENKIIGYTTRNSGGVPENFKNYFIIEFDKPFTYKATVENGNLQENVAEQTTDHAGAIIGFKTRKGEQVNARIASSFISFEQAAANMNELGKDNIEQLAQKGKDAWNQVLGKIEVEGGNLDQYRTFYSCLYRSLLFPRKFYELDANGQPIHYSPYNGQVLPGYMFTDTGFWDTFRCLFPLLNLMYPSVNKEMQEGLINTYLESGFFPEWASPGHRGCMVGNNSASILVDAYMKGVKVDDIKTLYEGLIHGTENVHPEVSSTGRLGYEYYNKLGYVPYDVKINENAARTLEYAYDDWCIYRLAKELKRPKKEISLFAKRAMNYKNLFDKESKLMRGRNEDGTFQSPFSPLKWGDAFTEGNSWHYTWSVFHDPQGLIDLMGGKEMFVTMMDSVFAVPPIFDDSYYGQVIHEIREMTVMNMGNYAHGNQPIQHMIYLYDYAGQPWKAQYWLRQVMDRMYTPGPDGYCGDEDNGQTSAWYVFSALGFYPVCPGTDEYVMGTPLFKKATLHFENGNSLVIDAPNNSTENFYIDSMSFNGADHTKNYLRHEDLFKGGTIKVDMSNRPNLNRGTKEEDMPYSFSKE

[2] = target: T1, Alpha-1,2-mannosidase (BT_3990) (Bacteroides thetaiotaomicron); test: Activity of Bacteroides thetaiotaomicron GH92 alpha-mannosidase 3990 assessed as recovery of enzyme activity at 1 mM in presence of 7 mM Mn(2+) ions and in presence of 5 mM EDTA in 100 mM pH 7 MOPS buffer relative to enzyme activity in presence of calcium
[3] = target: T1, Alpha-1,2-mannosidase (BT_3990) (Bacteroides thetaiotaomicron); test: Activity of Bacteroides thetaiotaomicron GH92 alpha-mannosidase 3990 assessed as recovery of enzyme activity at 1 mM in presence of 7 mM Mn(2+) ions and in presence of 5 mM EGTA in 100 mM pH 7 MOPS buffer relative to enzyme activity in presence of calcium
[4] = target: T2, Alpha-1,2-mannosidase (BT_2199) (Bacteroides thetaiotaomicron) (UniProt Q8A5N9); test: Activity of Bacteroides thetaiotaomicron GH92 alpha-mannosidase 2199 assessed as recovery of enzyme activity at 1 mM in presence of 7 mM Co(2+) ions and in presence of 5 mM EDTA in 100 mM pH 7 MOPS buffer relative to enzyme activity in presence of calcium
T2 sequence (whole entry): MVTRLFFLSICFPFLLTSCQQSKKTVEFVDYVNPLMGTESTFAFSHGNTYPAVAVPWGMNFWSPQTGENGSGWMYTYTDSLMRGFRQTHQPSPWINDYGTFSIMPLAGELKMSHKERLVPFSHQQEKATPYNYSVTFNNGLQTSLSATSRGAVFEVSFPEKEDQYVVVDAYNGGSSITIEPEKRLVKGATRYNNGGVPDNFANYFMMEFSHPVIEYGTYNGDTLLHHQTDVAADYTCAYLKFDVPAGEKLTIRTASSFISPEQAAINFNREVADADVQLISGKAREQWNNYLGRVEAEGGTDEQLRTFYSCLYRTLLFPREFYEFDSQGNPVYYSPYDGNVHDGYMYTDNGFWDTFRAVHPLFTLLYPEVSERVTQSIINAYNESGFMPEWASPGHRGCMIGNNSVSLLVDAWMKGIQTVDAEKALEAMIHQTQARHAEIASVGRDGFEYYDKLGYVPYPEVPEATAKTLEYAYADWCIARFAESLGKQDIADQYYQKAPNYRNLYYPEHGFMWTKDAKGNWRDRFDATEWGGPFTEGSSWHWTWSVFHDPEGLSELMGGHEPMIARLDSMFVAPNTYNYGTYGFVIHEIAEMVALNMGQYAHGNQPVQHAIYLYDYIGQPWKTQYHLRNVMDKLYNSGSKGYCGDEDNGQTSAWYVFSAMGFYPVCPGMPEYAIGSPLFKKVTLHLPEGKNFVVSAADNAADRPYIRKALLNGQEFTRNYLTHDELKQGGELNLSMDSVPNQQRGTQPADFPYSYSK

[5] = target: T2, Alpha-1,2-mannosidase (BT_2199) (Bacteroides thetaiotaomicron); test: Activity of Bacteroides thetaiotaomicron GH92 alpha-mannosidase 2199 assessed as recovery of enzyme activity at 1 mM in presence of 7 mM Ba(2+) ions and in presence of 5 mM EGTA in 100 mM pH 7 MOPS buffer relative to enzyme activity in presence of calcium
[6] = target: T3, Glycoside hydrolase family 92 (BT_3962) (Bacteroides thetaiotaomicron) (UniProt Q8A0Q9); test: Activity of Bacteroides thetaiotaomicron GH92 alpha-mannosidase GH92 alpha-mannosidase 3962 assessed as mannose release at 1 mM after 16 hrs by HPLC relative to untreated control after 16 hrs by HPLC
T3 sequence (whole entry): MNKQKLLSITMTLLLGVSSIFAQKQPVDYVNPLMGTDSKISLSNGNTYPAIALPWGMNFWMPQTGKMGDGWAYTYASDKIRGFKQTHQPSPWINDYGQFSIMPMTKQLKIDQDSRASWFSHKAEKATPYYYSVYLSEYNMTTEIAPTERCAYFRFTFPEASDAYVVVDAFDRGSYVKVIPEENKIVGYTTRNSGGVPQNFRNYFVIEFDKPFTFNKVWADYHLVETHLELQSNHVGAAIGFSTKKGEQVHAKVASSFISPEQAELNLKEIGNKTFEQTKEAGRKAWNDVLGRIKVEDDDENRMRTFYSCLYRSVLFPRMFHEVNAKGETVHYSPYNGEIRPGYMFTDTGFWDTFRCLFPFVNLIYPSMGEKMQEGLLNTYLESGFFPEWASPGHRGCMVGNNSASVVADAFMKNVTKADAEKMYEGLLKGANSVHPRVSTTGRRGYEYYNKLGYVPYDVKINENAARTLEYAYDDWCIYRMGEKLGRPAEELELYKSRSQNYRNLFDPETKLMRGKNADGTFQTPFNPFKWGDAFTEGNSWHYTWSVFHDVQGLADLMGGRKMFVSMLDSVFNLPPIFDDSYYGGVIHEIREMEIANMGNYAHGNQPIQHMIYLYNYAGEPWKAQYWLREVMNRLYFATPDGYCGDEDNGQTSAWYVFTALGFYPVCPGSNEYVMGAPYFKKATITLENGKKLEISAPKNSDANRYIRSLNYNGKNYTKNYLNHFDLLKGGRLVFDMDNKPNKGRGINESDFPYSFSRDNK

Molecule `O=[N+]([O-])c1ccc(O[C@H]2O[C@H](CO)[C@@H](O)[C@H](O)[C@@H]2O)cc1` has an Activity [1] of 100%, an Activity [2] of 13% and an Activity [3] of 6%. The Activity [4] was 7% and the Activity [5] was 0%.

With `OC[C@H]1O[C@H](O[C@H]2[C@@H](O)[C@H](O)[C@@H](CO)O[C@@H]2O)[C@@H](O)[C@@H](O)[C@@H]1O` the Activity [6] was 100%.

`OC[C@H]1O[C@H](OC[C@H]2O[C@H](O)[C@@H](O)[C@@H](O)[C@@H]2O)[C@@H](O)[C@@H](O)[C@@H]1O` was tested, and the Activity [6] was 0.0031%.

In the case of `OC[C@H]1O[C@H](O[C@@H]2[C@H](O)[C@@H](O)O[C@H](CO)[C@H]2O)[C@@H](O)[C@@H](O)[C@@H]1O`, the Activity [6] is reported as “inactive”.

With `OC[C@H]1O[C@H](O[C@H]2[C@H](O)[C@H](O)[C@@H](O)O[C@@H]2CO)[C@@H](O)[C@@H](O)[C@@H]1O` the Activity [6] was 0.042%.
